Experimental data published in paper PMC7044277 (Nature Communications, 2020).
“And” between values parts separate entries of the source, which are not always exact repeats. Equal entries are not always repeated.

What was measured:
Type in all cases: cell-based
320 non-olfactory GPCRs [1] = target: T1, 320 non-olfactory GPCRs (Homo sapiens, UniProt Q8IZF4)
T1 construct: expressed in transfected cells; host or cells: HTLA cells

320 non-olfactory GPCRs [2] = target: 320 non-olfactory GPCRs (Homo sapiens, UniProt P41145); settings: receptor OPRK1; replicate values, Fig_4g
320 non-olfactory GPCRs [3] = target: T2, 320 non-olfactory GPCRs (Homo sapiens, UniProt Q86SM5); settings: receptor MRGPRG; replicate values, Fig_4g
T2 construct: expressed in transfected cells; host or cells: HTLA cells

320 non-olfactory GPCRs [4] = target: 320 non-olfactory GPCRs (Homo sapiens, UniProt O43193); settings: receptor MLNR; replicate values, Fig_4g
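Wherever Fold of Basal is given: compound tested at 1 µM final concentration.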
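Wherever GPCRome agonism screen response is given: fold over basal response of each receptor without drug.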

T2 sequence (Q86SM5 whole entry): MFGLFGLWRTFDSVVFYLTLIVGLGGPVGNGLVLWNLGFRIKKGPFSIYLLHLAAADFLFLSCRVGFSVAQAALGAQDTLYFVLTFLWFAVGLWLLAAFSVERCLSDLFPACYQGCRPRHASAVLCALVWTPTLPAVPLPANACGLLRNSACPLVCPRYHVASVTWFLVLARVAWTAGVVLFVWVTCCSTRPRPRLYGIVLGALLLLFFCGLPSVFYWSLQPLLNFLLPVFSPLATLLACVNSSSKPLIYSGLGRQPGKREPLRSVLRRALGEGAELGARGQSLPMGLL
320 non-olfactory GPCRs (Homo sapiens, UniProt P41145), sequence (P41145 whole entry): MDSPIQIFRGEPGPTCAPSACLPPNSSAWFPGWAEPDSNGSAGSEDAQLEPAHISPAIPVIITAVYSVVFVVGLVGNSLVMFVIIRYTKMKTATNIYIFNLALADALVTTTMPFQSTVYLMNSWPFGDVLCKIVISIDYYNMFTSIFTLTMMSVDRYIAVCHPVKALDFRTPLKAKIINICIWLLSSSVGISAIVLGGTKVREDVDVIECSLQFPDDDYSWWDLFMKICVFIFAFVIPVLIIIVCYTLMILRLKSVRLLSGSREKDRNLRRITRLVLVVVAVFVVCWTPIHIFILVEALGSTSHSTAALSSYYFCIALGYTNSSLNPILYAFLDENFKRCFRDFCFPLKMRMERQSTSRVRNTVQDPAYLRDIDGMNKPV
320 non-olfactory GPCRs (Homo sapiens, UniProt O43193), sequence (O43193 whole entry): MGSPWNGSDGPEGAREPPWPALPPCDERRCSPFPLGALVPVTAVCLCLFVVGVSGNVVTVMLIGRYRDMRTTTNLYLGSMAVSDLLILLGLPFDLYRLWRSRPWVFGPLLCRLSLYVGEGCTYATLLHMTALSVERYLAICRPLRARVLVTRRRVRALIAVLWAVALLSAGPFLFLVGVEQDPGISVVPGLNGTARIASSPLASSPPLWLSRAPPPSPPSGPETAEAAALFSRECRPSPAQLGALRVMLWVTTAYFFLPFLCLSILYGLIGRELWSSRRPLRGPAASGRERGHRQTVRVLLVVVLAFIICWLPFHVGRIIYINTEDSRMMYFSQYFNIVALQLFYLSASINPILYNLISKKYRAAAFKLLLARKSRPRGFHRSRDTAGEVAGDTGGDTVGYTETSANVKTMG
T1 sequence (Q8IZF4 22-528): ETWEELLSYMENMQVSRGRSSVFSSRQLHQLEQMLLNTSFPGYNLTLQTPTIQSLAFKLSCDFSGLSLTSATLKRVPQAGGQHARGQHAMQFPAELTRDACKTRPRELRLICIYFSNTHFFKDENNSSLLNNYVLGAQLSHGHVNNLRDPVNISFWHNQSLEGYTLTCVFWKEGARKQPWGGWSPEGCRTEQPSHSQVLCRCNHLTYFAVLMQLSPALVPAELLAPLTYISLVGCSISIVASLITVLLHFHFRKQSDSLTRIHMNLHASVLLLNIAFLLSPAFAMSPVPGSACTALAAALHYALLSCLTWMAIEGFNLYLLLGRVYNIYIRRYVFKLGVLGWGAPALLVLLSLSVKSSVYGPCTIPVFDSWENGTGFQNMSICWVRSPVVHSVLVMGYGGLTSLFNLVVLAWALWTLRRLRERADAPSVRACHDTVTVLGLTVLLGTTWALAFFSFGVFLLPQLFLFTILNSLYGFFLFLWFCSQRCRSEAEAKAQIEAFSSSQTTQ

Q: With `CCOc1cccc2cc(C(C)NCC3(O)CCCCC3)oc12` (stereo not shown) [O4LE6] as the molecule, how does the “Fold of Basal” value (320 non-olfactory GPCRs [1]) read?
A: 1.8988 and 1.9 and 1.379

Q: And the “GPCRome agonism screen response” value (320 non-olfactory GPCRs [2])?
A: 0.2798 and 2.137 and 1.223 and 1.286

Q: What about the “GPCRome agonism screen response” value (320 non-olfactory GPCRs [3]) of the same molecule?
A: 0.767 and 0.7489 and 0.544 and 0.824

Q: What about the “GPCRome agonism screen response” value (320 non-olfactory GPCRs [4]) of the same molecule?
A: 1.48 and 1.279 and 0.7077 and 1.039
